Data taken from paper PMC11195995, “A homogeneous time-resolved fluorescence screen to identify SIRT2 deacetylase and defatty-acylase inhibitors” (PLOS ONE, 2024).
Entries after “also recorded” stand apart in the source; their conditions may differ. Like-named read-outs stand apart in the source and are kept apart here.

How the values were obtained:
SIRT2 [1] = target: T1, SIRT2 (Homo sapiens, UniProt Q8IXJ6); experiment: SIRT2 binding competition assay using Cy3-myristoyl-H4K16 peptide
T1 sequence (Q8IXJ6 34-356): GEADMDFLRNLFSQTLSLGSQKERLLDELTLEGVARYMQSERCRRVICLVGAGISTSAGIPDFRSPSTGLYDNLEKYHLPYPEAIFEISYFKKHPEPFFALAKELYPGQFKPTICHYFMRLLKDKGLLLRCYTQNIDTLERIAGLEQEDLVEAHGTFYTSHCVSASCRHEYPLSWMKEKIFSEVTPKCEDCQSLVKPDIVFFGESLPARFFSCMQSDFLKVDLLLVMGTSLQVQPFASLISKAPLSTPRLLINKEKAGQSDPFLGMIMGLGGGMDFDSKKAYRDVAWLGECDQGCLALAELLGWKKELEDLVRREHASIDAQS
Experimental: Competition assays where Cy3-myristoyl-H4K16 peptide was displaced from SIRT2 by 1 were performed as previously described. Assays were performed in PBS with 1 mM DTT at 23°C in a quartz microcuvette (160 μl assay volume). Briefly, the fluorescence intensity of 50 nM Cy3-myristoyl-H4K16 peptide was measured in the presence of 2.5 μM SIRT2 and increasing amounts of 1 using excitation/emission wavelengths of 535 nm/560 nm. The final DMSO concentration in each measurement was 0.6%. As previously described, displacement of Cy3-myristoyl-H4K16 peptide from SIRT2 by a competitive ligand results in a reduction of its fluorescence.
(§1) The data from both competition assays show a reduction in probe fluorescence at increasing concentrations of competitor ligands. […] We determined and report absolute IC50 values from the curves which reflect ligand concentrations that reduce the fluorescence by 50% compared to control (no ligand) samples.

SIRT2 [2] = target: T1, SIRT2; experiment: SIRT2 deacetylase activity assay (MALDI-MS, acetyl-H4K16 peptide); type: biochemical
Experimental: (§2) The enzymatic activity of SIRT2 was measured using a MALDI-MS—based protocol reported previously. Reactions were performed at 37°C for 2.5 min in PBS containing 1 mM DTT and 1 mM of NAD^+. Acylated H4K16 peptides were used as the substrates at the following concentrations: acetyl-H4K16, 4 μM; decanoyl-H4K16, 0.2 μM; dodecanoyl-H4K16, 0.5 μM; myristoyl-H4K16, 0.5 μM. These concentrations correspond to the enzyme’s Km for each substrate under saturating NAD^+ conditions. The enzyme concentration in each reaction was chosen such that 20% or less of the substrate was processed by the enzyme when the reactions were quenched. In dose-response assays showing a reduction in SIRT2 activity by increasing amounts of ligand, the data was fit with standard sigmoidal dose-response curves as we previously described. We report absolute IC50 values from the curves which reflect ligand concentrations that reduce the activity of the enzyme by 50% compared to control (no ligand) samples. Assays measuring the effects of ligand on SIRT1 deacetylase and SIRT6 demyristoylase activities were performed similarly, as previously described.

SIRT2 [3] = target: T1, SIRT2; experiment: SIRT2 de-decanoylase activity assay (MALDI-MS, decanoyl-H4K16 peptide); type: biochemical; conditions: 0.2 μM decanoyl-H4K16, 1 mM NAD+
Experimental: as §2

SIRT2 [4] = target: T1, SIRT2; experiment: SIRT2 de-dodecanoylase activity assay (MALDI-MS, dodecanoyl-H4K16 peptide); type: biochemical; conditions: 0.5 μM dodecanoyl-H4K16, 1 mM NAD+
Experimental: as §2

SIRT2 [5] = target: T1, SIRT2; experiment: SIRT2 demyristoylase activity assay (MALDI-MS, myristoyl-H4K16 peptide); type: biochemical
Experimental: as §2

SIRT1 = target: T2, SIRT1 (Homo sapiens, UniProt Q96EB6); experiment: SIRT1 deacetylase activity assay; type: biochemical; conditions: 1 μM acetyl-H4K16
T2 sequence (Q96EB6 1-747): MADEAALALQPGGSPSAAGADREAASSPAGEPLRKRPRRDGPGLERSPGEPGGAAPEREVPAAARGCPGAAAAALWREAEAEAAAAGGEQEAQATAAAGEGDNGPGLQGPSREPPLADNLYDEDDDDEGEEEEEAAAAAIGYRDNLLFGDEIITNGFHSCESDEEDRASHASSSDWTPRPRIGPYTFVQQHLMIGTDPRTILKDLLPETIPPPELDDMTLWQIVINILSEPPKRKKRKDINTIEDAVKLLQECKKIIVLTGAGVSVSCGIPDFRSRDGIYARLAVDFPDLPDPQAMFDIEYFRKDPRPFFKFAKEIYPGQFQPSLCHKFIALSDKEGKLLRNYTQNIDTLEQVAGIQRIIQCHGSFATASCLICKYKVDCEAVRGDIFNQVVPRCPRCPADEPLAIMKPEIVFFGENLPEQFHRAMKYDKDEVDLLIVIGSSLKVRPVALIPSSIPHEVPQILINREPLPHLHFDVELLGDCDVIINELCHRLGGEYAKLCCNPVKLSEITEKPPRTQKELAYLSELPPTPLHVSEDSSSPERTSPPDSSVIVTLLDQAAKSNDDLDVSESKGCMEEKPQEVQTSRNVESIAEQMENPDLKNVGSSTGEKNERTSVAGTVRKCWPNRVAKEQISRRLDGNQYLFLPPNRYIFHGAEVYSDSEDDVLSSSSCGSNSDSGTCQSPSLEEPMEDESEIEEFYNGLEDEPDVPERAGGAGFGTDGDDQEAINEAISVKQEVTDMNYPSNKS
Experimental: as §2

SIRT6 = SIRT6 (Homo sapiens, UniProt Q8N6T7); experiment: SIRT6 demyristoylase activity assay; type: biochemical; conditions: 16 μM myristoyl-H4K16, dose-response
Chain of SIRT6 (Q8N6T7 whole entry): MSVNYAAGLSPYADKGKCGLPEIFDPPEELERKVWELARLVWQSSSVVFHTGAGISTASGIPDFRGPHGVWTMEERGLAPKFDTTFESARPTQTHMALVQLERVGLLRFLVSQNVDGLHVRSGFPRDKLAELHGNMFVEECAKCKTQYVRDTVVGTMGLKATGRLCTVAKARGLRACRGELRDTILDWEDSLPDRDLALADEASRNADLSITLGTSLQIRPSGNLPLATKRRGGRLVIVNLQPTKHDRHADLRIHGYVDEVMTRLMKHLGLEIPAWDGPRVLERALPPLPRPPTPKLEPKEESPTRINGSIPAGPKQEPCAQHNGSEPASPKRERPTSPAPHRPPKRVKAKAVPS
Experimental: as §2

[6] = test system: acetylated alpha-tubulin in A549 cells; experiment: Immunofluorescence staining of acetylated alpha-tubulin in A549 cells; type: cell-based, human; conditions: 100 μM, 6 hours
Experimental: 100,000 A549 or A549 SIRT2-KO cells were seeded on a coverslip that was placed in the well of 6-well plate, and the cells were grown overnight in full DMEM. […] The cells were then washed three times with PBS, fixed with 4% paraformaldehyde for 10 min, then washed again three times with PBS. Cells were incubated with 0.2% Triton X-100 for 15 minutes on a shaker followed by three more PBS washes. The cells were then blocked with 2% BSA in PBS for 1 hour at room temperature. […] Slides were imaged using a Keyence BZ-X710 fluorescence microscope with the following filter settings: DAPI, excitation/emission was 300–400 nm/438-484 nm; Alexa Fluor 488, excitation/emission was 448 nm/500-550 nm. All images were obtained under identical conditions, and fluorescence intensities were quantified using Fiji/ImageJ without any manipulation to the images. The fluorescence intensity from at least six cells per coverslip were randomly selected and measured targeting the cytosol (for measuring acetylated alpha-tubulin levels via Alexa Fluor 488) or the nucleus (for measuring nuclear DNA staining via DAPI). Relative fluorescence intensity was calculated as the ratio of Alexa Fluor 488/DAPI intensities. […]

[7] = test system: acetylated alpha-tubulin in A549 SIRT2-KO cells; experiment: Immunofluorescence staining of acetylated alpha-tubulin in A549 SIRT2-KO cells; type: cell-based, human; conditions: 100 μM, 6 hours
A549 cells = experiment: Cell viability MTT assay; type: cell-based, human; conditions: 72 hours treatment, concentrations shown in Fig 4F and 4G
Experimental: 5,000 A549 cells were seeded in a 96-well plate in full DMEM. The total volume in each well was 150 μl, and the DMSO concentration was 0.7%. After this treatment period, 10 μl of MTT reagent was added to each well, then the cells were cultured for 4 hour before adding 100 μl of crystal dissolving solution for another 16 hour incubation (Cayman Chemical, catalog #10009365). The absorbance in each well was measured at 570 nm and was used to determine the cell viability by comparing the absorbance of drug treated cells to control (DMSO treated) cells.

[8] = target: T3, human SIRT2 catalytic domain (6xHis-SUMO-SIRT2) (Homo sapiens, UniProt Q8IXJ6); experiment: biochemical
T3 sequence (Q8IXJ6 34-356): T1 sequence (Q8IXJ6 34-356)

SIRT2 [9] = target: T1, SIRT2; experiment: 1-aminoanthracene binding competition assay, SIRT2 alone
Experimental: (§3) Competition assays where 1-aminoanthracene was displaced from SIRT2 by 2, 4, 5, and 6 were performed as previously reported where we described its displacement from SIRT2 by 3. The assays were also cuvette-based and performed at 23°C in PBS with 1 mM DTT, and the final DMSO concentration was 0.6%. Briefly, the fluorescence intensity of 100 nM 1-aminoanthracene was measured in the presence of 4 μM SIRT2 and increasing amounts of ligand using excitation/emission wavelengths of 390 nm/520 nm. As previously described, displacement of 1-aminoanthracene from SIRT2 by a competitor results in a reduction of its fluorescence.
We determined and report absolute IC50 values from the curves which reflect ligand concentrations that reduce the fluorescence by 50% compared to control (no ligand) samples.

[10] = target: SIRT2—decanoyl-peptide complex (Homo sapiens, UniProt Q8IXJ6); experiment: 1-aminoanthracene binding competition assay, SIRT2—decanoyl-peptide complex
Experimental: as §3, §1

SIRT2 [11] = target: T1, SIRT2; experiment: Intact protein MALDI-MS for covalent adduct on SIRT2; conditions: 100 μM ligand, 10 μM SIRT2, 37°C, 30 minutes
Experimental: (A) MALDI-MS spectra of 10 μM SIRT2 after incubation in PBS with 1% DMSO at 37°C for 30 minutes. (B) MALDI-MS spectra of 10 μM SIRT2 after incubation with 100 μM of 2 in PBS with 1% DMSO at 37°C for 30 minutes. The predicted monoisotopic mass for this SIRT2 protein was 36552 Da, and the predicted average mass was 36576 Da; thus, the main peaks represented +1 ions in the isotopic cluster. […] The intact protein spectra were acquired with a Bruker microflex instrument in linear, positive ion mode using sinapinic acid as the matrix. Sinapinic acid was dissolved in 50% acetonitrile/50% water with 0.1% trifluoroacetic acid, which was also used to dilute protein prior to spotting on the MALDI plate. (TIFF)

SIRT2 [12] = target: T1, SIRT2; conditions: read-out: IC50 for SIRT2 demyristoylase activity; cited from earlier work
SIRT2 [13] = target: T1, SIRT2; conditions: read-out: Kd for SIRT2 alone; cited from earlier work
[14] = target: SIRT2—decanoyl peptide complex; parameters: method as in PMID 32941003; conditions: cited from earlier work
SIRT2 [15] = target: T1, SIRT2; conditions: read-out: Deacetylase IC50; previously published; cited from earlier work

O=c1/c(=C\c2cc(Br)cc(I)c2O)sc2nc3ccccc3n12 [compound 1]
IC50 (SIRT2 [1]; 50 nM Cy3 peptide, 2.5 μM SIRT2, 23°C, read-out: IC50 for displacement of Cy3-myristoyl-H4K16 peptide from SIRT2): 16 µM | Kd (SIRT2 [1]; calculated from IC50 of Cy3-myristoyl-H4K16 peptide competition assay): 5 µM | IC50 (SIRT2 [2]): 7 µM | IC50 (SIRT2 [3]): 8 µM | IC50 (SIRT2 [4]): 39 µM | IC50 (SIRT2 [5]): 37 µM | effect on the demyristoylase activity of SIRT2 (SIRT2 [5]; 50 μM compound): considerably most effective | IC50 (SIRT1): 32 µM | effect on the demyristoylase activity of SIRT6 (SIRT6): no effect | level of acetylated alpha-tubulin (immunofluorescence) [6]: significantly increased; also recorded: enhanced fluorescence | level of acetylated alpha-tubulin (immunofluorescence) [7]: no effect | viability / toxicity in A549 cells (MTT) (A549 cells): did not cause toxicity; also recorded: no effect | IC50 [8]: 6.92 µM

Oc1ccc(Br)cc1I [compound 2, 4-bromo-2-iodophenol]
IC50 (SIRT2 [9]; SIRT2 only, 100 nM 1-aminoanthracene, 4 μM SIRT2): 75 µM | Kd (SIRT2 [9]; read-out: SIRT2 Kd): 68 µM | Kd [10]: 3 µM | IC50 ([10]; SIRT2-decanoyl peptide complex, 100 nM 1-aminoanthracene, 4 μM SIRT2, 10 μM decanoyl-H4K16 peptide): 7 µM | affinity for SIRT2—decanoyl-peptide complex compared to SIRT2 alone ([10]; stronger for the complex): 23 fold | IC50 (SIRT2 [2]): 9 µM | Demyristoylase IC50 (SIRT2 [5]; 0.5 μM myristoyl-H4K16, 1 mM NAD+, 37°C, absolute IC50, "no effect" = 200 μM compound did not significantly affect SIRT2 activity): no effect | covalent reaction with SIRT2 (intact protein mass spectrometry) (SIRT2 [11]): does not irreversibly attach to SIRT2 or form any type of covalent adduct; also recorded: does not covalently react with SIRT2

CC(C)c1cccc(C(C)C)c1O [compound 3, 2-6-diisopropylphenol]
IC50 (SIRT2 [12]): 195 µM | Kd (SIRT2 [13]): 25 µM | Kd [14]: 7 µM | IC50 (SIRT2 [15]): 140 µM
